No end group written: not given here.
Key:
[1] = DMPC MLV lipid clearance (lipid binding); details: compared with ApoA-I; 30 nmol/l DMPC, 1:100 molar ratio, 25°C, absorbance at 325 nm; n=5
Experimental: Turbid MLV solutions at 30 nmol/l DMPC were combined with PBS, RG54 or ApoA-I at a 1:100 molar ratio, and lipid binding at 25°C was measured by absorbance at 325 nm at the indicated times. Readings were fitted to one-way decay of non-linear regression.
Quantitative and qualitative lipid assays were applied to determine the lipid-binding properties of RG54. Solubilisation of MLVs made from DMPC phospholipids by RG54 peptide, or by recombinant ApoA-I protein as control, was assayed by light scattering (ESM Fig. 4a).
ESM Figure 4. Lipid clearance and peptide-lipid complex formation activity of RG54 compared with full-length ApoA-I.
DMPC clearance activity of RG54 was compared with ApoA-I. Turbid solutions of DMPC MLVs (30 nmol/l) were prepared in PBS as described in Methods and combined with PBS, RG54, or ApoA-I at a 1:100 molar ratio then lipid binding at 25°C was measured by absorbance at 325 nm at indicated times. (a) Readings were fitted to one-way decay of non-linear regression. (b) The lipid clearance rate is described as t1/2 values calculated from panel a, means ± SEM, n=5, *** p ≤ 0.001. Further, rHDL particles were prepared by incubating the MLVs with proteins or peptides in the molar ratios noted at 24°C for four days. Particle size distribution was analysed by DLS and frequency curves generated for ApoA-I (c) or RG54 (d). […]

[2] = system: J774 macrophages; assay: Cholesterol efflux assay; type: cell-based, mouse
Experimental: The mouse macrophage-like cell line J774 (ATCC TIB-67), loaded with ^3H-cholesterol, was used for cholesterol efflux to acceptors (RG54 or ApoA-I) as previously described.
To investigate the functionality of the RG54 peptide in a physiological context, cholesterol efflux from J774 macrophages was employed. Cultured macrophages were loaded with radioactive cholesterol, then incubated for 2 or 4 h with RG54 peptide or ApoA-I at the shown concentrations, followed by quantification of the amount of effluxed ^3H-cholesterol (Fig. 1a,b). […] As most circulating ApoA-I is bound to lipids in various species of HDL, and as the RG54 peptide was shown in the lipid clearance assay to efficiently associate with lipids, we reasoned that lipidation of the RG54 peptide might improve its catalytic activity. To explore this, RG54 was first incubated with lipids as described in ESM Fig. 4d, followed by comparative analyses of the catalytic capacities in cholesterol efflux from cholesterol-loaded macrophages.
Fig. 1 Cholesterol efflux activity of RG54 compared with ApoA-I. (a, b) Concentration dependence of cholesterol efflux from ^3H-cholesterol-labelled J774 cells by lipid-free RG54 or ApoA-I was measured after 2 h (a) or 4 h (b). n=5 for both. Vmax (c) and KM (d) were calculated using the Michaelis–Menten equation. (e–g) Efflux activity of lipid-free (LF) and lipid-bound (LB) RG54 was compared after 2 h. n=3. An acyl CoA:cholesterol O-acyltransferase (ACAT) inhibitor and 8-(4-chlorophenylthio; CPT)-cAMP were used in all experiments to prevent formation of cholesteryl esters of ^3H-cholesterol and to induce expression of ABCA1, respectively. Values are means ± SEM. **p≤0.01, ***p≤0.001

Substance: Ac-AEYHAKATEHLSTLSEKAKPALEDLRQGLLPVLESFKVSFLSALEEYTKKLNTQ [RG54]
- initial rate of phospholipid binding [1]: significantly lower
- Vmax of cholesterol efflux, lipid-bound vs lipid-free ([2]; RG54 first incubated with lipids (DMPC), 2 h, n=3): twofold increase
- Vmax of cholesterol efflux ([2]; lipid-free RG54 compared with ApoA-I, Michaelis-Menten, n=5): significantly lower
- cholesterol efflux ([2]; lipid-free, 3H-cholesterol-loaded J774, 2 or 4 h, ACAT inhibitor and CPT-cAMP, n=5): dose-dependent manner

— publication PMC6560211, “ApoAI-derived peptide increases glucose tolerance and prevents formation of atherosclerosis in mice” (Diabetologia, 2019)
